Reference: patent US4479951A, “1.4;3.6-Dianhydrohexitol nitrates substituted by purine bases, processes for their preparation and pharmaceutical compositions” (Dr. Willmar Schwabe GmbH & Co., priority 1980, dated 1984)

System: mongrel dogs
Experiment: circulatory-pharmacological effectiveness on the narcotised dog, intravenous administration
Assay type: in vivo

## Nc1ncnc2c1ncn2[C@H]1CO[C@H]2[C@@H]1OC[C@@H]2O[N+](=O)[O-] [1c/2c, 5-(9-Adenyl)-5-desoxy-1.4;3.6-dianhydro-L-iditol 2-nitrate]
15 min after i.v. 1 mg/kg
  APdiast: diastolic aorta pressure: 80.6 mm.Hg
  APsyst: systolic aorta pressure: 120.4 mm.Hg
  BFFem: blood flow in the A. femoralis, referred to 20 kg. body weight: 39.9 mL/min
  HF: heart frequency: 133.0 min⁻¹
  HLL: heart capacity left, referred to 20 kg. body weight: 0.72 W
  HLR: heart capacity right, referred to 20 kg. body weight: 87.3 mW
  HZV: heart minute volume, referred to 20 kg. body weight: 3.61 L/min
  LVEDP: end diastolic pressure in the left ventricle: 3.37 mm.Hg
  PAP: average pressure in the A. pulmonalis: 14.0 ±1.9 mm.Hg
  PRA: pressure in the right atrium: 3.24 mm.Hg
  SV: beat volume, referred to 20 kg. body weight: 29.3 mL
  WAP: pulmonalis resistance, referred to 20 kg. body weight: 0.40 U
  WFem: femoralis resistance, referred to 20 kg. body weight: 0.32 KU
  WTP: total peripheral resistance, referred to 20 kg. body weight: 3.41 U
  dp/dt: rate of pressure increase in the left ventricle: 2250.0 mm.Hg/sec.
20 min after i.v. 1 mg/kg
  APdiast: diastolic aorta pressure: 79.1 mm.Hg
  APsyst: systolic aorta pressure: 121.5 mm.Hg
  BFFem: blood flow in the A. femoralis, referred to 20 kg. body weight: 41.2 mL/min
  HF: heart frequency: 129.7 min⁻¹
  HLL: heart capacity left, referred to 20 kg. body weight: 0.72 W
  HLR: heart capacity right, referred to 20 kg. body weight: 87.7 mW
  HZV: heart minute volume, referred to 20 kg. body weight: 3.66 L/min
  LVEDP: end diastolic pressure in the left ventricle: 3.56 mm.Hg
  PAP: average pressure in the A. pulmonalis: 13.8 ±1.7 mm.Hg
  PRA: pressure in the right atrium: 3.30 mm.Hg
  SV: beat volume, referred to 20 kg. body weight: 30.0 mL
  WAP: pulmonalis resistance, referred to 20 kg. body weight: 0.37 U
  WFem: femoralis resistance, referred to 20 kg. body weight: 0.31 KU
  WTP: total peripheral resistance, referred to 20 kg. body weight: 3.32 U
  dp/dt: rate of pressure increase in the left ventricle: 2231.2 mm.Hg/sec.
25 min after i.v. 1 mg/kg
  APdiast: diastolic aorta pressure: 80.6 mm.Hg
  APsyst: systolic aorta pressure: 122.8 mm.Hg
  BFFem: blood flow in the A. femoralis, referred to 20 kg. body weight: 42.2 mL/min
  HF: heart frequency: 125.7 min⁻¹
  HLL: heart capacity left, referred to 20 kg. body weight: 0.74 W
  HLR: heart capacity right, referred to 20 kg. body weight: 90.0 mW
  HZV: heart minute volume, referred to 20 kg. body weight: 3.7 L/min
  LVEDP: end diastolic pressure in the left ventricle: 4.03 mm.Hg
  PAP: average pressure in the A. pulmonalis: 14.0 ±1.8 mm.Hg
  PRA: pressure in the right atrium: 3.28 mm.Hg
  SV: beat volume, referred to 20 kg. body weight: 31.3 mL
  WAP: pulmonalis resistance, referred to 20 kg. body weight: 0.36 U
  WFem: femoralis resistance, referred to 20 kg. body weight: 0.31 KU
  WTP: total peripheral resistance, referred to 20 kg. body weight: 3.33 U
  dp/dt: rate of pressure increase in the left ventricle: 2175.0 mm.Hg/sec.
30 min after i.v. 1 mg/kg
  APdiast: diastolic aorta pressure: 79.7 mm.Hg
  APsyst: systolic aorta pressure: 122.8 mm.Hg
  BFFem: blood flow in the A. femoralis, referred to 20 kg. body weight: 43.9 mL/min
  HF: heart frequency: 122.7 min⁻¹
  HLL: heart capacity left, referred to 20 kg. body weight: 0.73 W
  HLR: heart capacity right, referred to 20 kg. body weight: 84.9 mW
  HZV: heart minute volume, referred to 20 kg. body weight: 3.63 L/min
  LVEDP: end diastolic pressure in the left ventricle: 4.31 mm.Hg
  PAP: average pressure in the A. pulmonalis: 14.1 ±1.8 mm.Hg
  PRA: pressure in the right atrium: 3.52 mm.Hg
  SV: beat volume, referred to 20 kg. body weight: 31.6 mL
  WAP: pulmonalis resistance, referred to 20 kg. body weight: 0.36 U
  WFem: femoralis resistance, referred to 20 kg. body weight: 0.29 KU
  WTP: total peripheral resistance, referred to 20 kg. body weight: 3.32 U
  dp/dt: rate of pressure increase in the left ventricle: 2184.4 mm.Hg/sec.
